Experimental data reported in paper PMC10646256, “Scutellarin Rescued Mitochondrial Damage through Ameliorating Mitochondrial Glucose Oxidation via the Pdk‐Pdc Axis” (Advanced Science, 2023).

Target: pyruvate dehydrogenase kinase 2 (PDK2) (Homo sapiens, UniProt Q15119)
Experiment: mobility shift kinase assay with purified GST-PDK2; supported by DARTS, CETSA, co-IP-MS and LiP-MS
Type: biochemical

## O=C(O)[C@H]1O[C@@H](Oc2cc3oc(-c4ccc(O)cc4)cc(=O)c3c(O)c2O)[C@H](O)[C@@H](O)[C@@H]1O [SG, Scutellarin]
  mobility shift kinase assay with purified GST-PDK2; supported by DARTS, CETSA, c: SG had significantly higher inhibitory activity against PDK2 than DCA at multiple concentrations
